This note sets out measurements from patent US11542259B2, “Compounds for the treatment of kinase-dependent disorders” (Exelixis, Inc., priority 2018, dated 2023).

For one assay, the target named is Met (Homo sapiens (Human), UniProt P08581). As to the kind of experiment: Met autophosphorylation ELISA in PC-3 cells. The assay is classed as cell-based. Particulars: cellular, HGF stimulated, read-out: c-Met IC50. The procedure, abridged: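 Phospho-Met (panTyr) sandwich ELISA on lysates of PC-3 cells given 100 ng/mL HGF for 10 min after 1 h compound exposure (8-point curve, 0.3% DMSO) following 3 h serum starvation. Normalised to HGF-stimulated DMSO and reference-inhibitor wells; 4-parameter logistic IC50.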
Met, sequence (P08581 25-1390): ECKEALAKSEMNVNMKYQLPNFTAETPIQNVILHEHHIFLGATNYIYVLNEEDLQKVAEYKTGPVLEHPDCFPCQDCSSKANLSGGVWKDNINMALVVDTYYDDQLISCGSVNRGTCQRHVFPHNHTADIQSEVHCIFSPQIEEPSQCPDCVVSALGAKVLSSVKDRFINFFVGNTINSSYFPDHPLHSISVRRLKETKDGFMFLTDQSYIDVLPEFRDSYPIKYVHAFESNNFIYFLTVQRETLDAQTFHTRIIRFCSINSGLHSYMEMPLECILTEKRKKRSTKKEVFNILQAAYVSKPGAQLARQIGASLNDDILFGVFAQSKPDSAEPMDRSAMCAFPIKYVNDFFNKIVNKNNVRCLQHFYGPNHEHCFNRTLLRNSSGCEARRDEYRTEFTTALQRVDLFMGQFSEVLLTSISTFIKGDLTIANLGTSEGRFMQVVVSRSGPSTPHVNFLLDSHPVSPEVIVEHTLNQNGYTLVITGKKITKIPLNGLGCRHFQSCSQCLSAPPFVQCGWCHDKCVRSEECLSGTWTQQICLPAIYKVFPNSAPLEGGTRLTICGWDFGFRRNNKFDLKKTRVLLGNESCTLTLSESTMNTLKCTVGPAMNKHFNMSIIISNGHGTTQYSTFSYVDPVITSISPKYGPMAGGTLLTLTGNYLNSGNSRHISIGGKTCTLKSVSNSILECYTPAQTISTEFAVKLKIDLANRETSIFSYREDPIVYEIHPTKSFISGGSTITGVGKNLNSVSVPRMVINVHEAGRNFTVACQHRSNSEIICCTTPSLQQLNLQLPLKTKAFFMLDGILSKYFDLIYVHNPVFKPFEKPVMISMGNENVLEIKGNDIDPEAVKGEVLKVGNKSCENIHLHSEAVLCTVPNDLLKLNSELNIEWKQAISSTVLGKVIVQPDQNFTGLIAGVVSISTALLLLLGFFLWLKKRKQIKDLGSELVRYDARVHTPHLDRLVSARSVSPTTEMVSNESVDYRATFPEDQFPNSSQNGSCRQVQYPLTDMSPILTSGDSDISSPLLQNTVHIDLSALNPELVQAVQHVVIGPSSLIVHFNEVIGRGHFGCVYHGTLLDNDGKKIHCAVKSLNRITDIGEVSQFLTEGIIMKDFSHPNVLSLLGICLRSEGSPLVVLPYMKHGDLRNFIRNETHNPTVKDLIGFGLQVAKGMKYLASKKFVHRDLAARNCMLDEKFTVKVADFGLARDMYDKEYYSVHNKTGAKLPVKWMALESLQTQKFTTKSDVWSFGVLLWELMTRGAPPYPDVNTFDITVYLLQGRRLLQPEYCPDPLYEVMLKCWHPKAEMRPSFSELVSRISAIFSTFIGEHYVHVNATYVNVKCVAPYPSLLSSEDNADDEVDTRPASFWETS
Background: An ELISA detects its analyte on a solid surface through an enzyme-linked reagent.

The target in the next assay is AXL (Homo sapiens (Human), UniProt P30530). Nature of the assay: AXL autophosphorylation ELISA in A-172 cells. Particulars: cellular, Gas6 stimulated. Format: cell-based. The procedure, abridged:
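Serum-starved (24 h) A-172 glioblastoma cells pretreated 1 h with compounds (8-point curve, 0.3% DMSO), then stimulated 15 min with 1 μg/mL Gas6. Lysate phospho-AXL measured by sandwich ELISA against a phospho-AXL standard; IC50 from 4-parameter logistic fit between DMSO and reference-inhibitor controls.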

In assay [1] the target is Human Mer (residues R557-E882 with H628Q and R794A) (Homo sapiens (Human), UniProt Q12866). As to the kind of experiment: Human Mer kinase assay (33P radiometric, KinaseProfiler). Particulars: 10 μM ATP. The assay is classed as biochemical.
Human Mer (residues R557-E882 with H628Q and R794A), sequence (Q12866 557-882, stated change not applied): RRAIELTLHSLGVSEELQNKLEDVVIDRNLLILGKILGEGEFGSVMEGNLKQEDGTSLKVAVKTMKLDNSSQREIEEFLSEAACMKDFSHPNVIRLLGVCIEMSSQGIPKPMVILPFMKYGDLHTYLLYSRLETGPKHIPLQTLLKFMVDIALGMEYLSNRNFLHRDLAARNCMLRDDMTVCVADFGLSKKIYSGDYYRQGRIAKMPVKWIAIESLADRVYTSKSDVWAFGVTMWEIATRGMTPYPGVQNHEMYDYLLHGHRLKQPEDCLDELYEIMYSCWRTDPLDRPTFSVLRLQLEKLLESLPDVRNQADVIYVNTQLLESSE
Assay [2] addresses Human Axl (residues H473-A894 with Q764R) (Homo sapiens (Human), UniProt P30530, Q764R). As to the kind of experiment: Human AXL kinase assay (33P radiometric, KinaseProfiler). The assay is classed as biochemical. Particulars: 10 μM ATP.

AXL, sequence (P30530 26-894): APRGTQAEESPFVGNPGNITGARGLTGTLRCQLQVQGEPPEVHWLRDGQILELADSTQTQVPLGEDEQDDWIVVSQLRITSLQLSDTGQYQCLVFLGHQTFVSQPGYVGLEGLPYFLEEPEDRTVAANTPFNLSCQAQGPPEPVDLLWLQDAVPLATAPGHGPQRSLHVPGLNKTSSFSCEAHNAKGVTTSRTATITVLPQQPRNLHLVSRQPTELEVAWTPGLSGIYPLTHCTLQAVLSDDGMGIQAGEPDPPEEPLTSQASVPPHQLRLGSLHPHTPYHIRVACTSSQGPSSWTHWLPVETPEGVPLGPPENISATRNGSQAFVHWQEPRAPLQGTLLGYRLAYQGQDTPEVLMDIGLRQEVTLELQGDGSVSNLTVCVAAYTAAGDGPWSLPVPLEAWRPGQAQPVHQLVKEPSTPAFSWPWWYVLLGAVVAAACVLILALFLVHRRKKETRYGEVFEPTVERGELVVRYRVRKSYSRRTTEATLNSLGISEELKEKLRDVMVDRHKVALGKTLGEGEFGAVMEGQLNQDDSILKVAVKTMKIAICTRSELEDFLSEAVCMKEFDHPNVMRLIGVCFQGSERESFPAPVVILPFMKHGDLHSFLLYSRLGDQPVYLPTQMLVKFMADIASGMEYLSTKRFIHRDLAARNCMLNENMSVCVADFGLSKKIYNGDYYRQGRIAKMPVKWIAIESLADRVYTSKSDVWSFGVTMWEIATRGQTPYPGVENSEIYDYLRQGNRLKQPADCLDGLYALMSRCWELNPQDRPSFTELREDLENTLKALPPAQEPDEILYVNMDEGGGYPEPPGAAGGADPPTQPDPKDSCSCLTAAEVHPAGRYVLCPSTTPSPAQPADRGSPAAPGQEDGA
Human Axl (residues H473-A894 with Q764R), sequence (P30530 473-894 Q764R): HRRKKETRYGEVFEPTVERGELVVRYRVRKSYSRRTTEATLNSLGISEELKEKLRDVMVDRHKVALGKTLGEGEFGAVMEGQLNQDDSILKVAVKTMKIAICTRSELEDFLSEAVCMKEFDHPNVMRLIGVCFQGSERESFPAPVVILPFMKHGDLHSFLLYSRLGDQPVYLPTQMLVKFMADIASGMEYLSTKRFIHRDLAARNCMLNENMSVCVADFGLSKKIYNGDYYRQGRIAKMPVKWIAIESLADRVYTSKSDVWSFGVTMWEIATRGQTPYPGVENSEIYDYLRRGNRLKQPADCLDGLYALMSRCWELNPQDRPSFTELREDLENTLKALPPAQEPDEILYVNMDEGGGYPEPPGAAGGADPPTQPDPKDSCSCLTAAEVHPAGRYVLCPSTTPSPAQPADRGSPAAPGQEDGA

For orientation: IC50 means the concentration needed to halve the response being measured. For `COc1cc2nccc(Oc3ccc(NC(=O)C4(C(=O)Nc5ccc(F)cc5)CC4)cc3)c2cc1C1(O)CN(C(=O)OC(C)(C)C)C1` [Compound 195, tert-butyl 3-[4-[4-[[1-[(4-fluorophenyl)carbamoyl]cyclopropanecarbonyl]amino]phenoxy]-7-methoxyquinolin-6-yl]-3-hydroxyazetidine-1-carboxylate], the IC50 at Met was 0.01 to 0.1 µM; against AXL, 0.1 to 0.3 µM; in assay [1] it was at most 0.01 µM; in assay [2], 0.01 to 0.1 µM.

Regarding `CNC(=O)c1ccc2nccc(Oc3ccc(NC(=O)C4(C(=O)Nc5ccc(F)cc5)CC4)cc3)c2c1` [Compound 59, 1-N′-(4-fluorophenyl)-1-N-[4-[6-(methylcarbamoyl)quinolin-4-yl]oxyphenyl]cyclopropane-1,1-dicarboxamide], the IC50 was 0.1 to 0.3 µM on Met, 0.1 to 0.3 µM at AXL, 0.01 to 0.1 µM in assay [1] and 0.01 to 0.1 µM in assay [2].

Turning to `CNC(=O)c1cc2nccc(Oc3ccc(NC(=O)C4(C(=O)Nc5ccc(F)cc5)CC4)cc3)c2cc1OC` [Compound 153, 1-N′-(4-fluorophenyl)-1-N-[4-[6-methoxy-7-(methylcarbamoyl)quinolin-4-yl]oxyphenyl]cyclopropane-1,1-dicarboxamide], the IC50 at Met was 0.1 to 0.3 µM; at AXL it was 0.01 to 0.1 µM; in assay [1] it was at most 0.01 µM; in assay [2] it was 0.01 to 0.1 µM.

For the compound `COc1cc2nccc(Oc3ccc(NC(=O)C4(C(=O)Nc5ccc(F)cc5)CC4)cc3Cl)c2cc1C(N)=O` [Compound 132, 1-N′-[4-(6-carbamoyl-7-methoxyquinolin-4-yl)oxy-3-chlorophenyl]-1-N-(4-fluorophenyl)cyclopropane-1,1-dicarboxamide], the IC50 (at Met; on AXL; in assay [1]; in assay [2]) was at most 0.01 µM throughout.

With `NC(=O)c1ccc2nccc(Oc3ccc(NC(=O)C4(C(=O)Nc5ccc(F)cc5)CC4)cc3)c2c1` [Compound 58, 1-N-[4-(6-carbamoylquinolin-4-yl)oxyphenyl]-1-N′-(4-fluorophenyl)cyclopropane-1,1-dicarboxamide], the IC50 at Met was in the range of 0.1 to 0.3 µM; on AXL, 0.01 to 0.1 µM; in assay [1], 0.01 to 0.1 µM; in assay [2] it was 0.01 to 0.1 µM.

Regarding `COc1cc2nccc(Oc3ccc(NC(=O)C4(C(=O)Nc5ccc(F)cc5)CC4)cc3)c2cc1-c1ccncc1` [Compound 202, 1-N′-(4-Fluorophenyl)-1-N-[4-(7-methoxy-6-pyridin-4-ylquinolin-4-yl)oxyphenyl]cyclopropane-1,1-dicarboxamide], the concentration for half-maximal inhibition (IC50) is 0.01 to 0.1 µM on Met, 0.01 to 0.1 µM against AXL, at most 0.01 µM in assay [1] and 0.01 to 0.1 µM in assay [2].

`COc1cc2nccc(Oc3ccc(NC(=O)C4(C(=O)Nc5ccc(F)cc5)CC4)cc3)c2cc1C(=O)NC1COC1` [Compound 13, 1-N′-(4-fluorophenyl)-1-N-[4-[7-methoxy-6-(oxetan-3-ylcarbamoyl)quinolin-4-yl]oxyphenyl]cyclopropane-1,1-dicarboxamide]: the IC50 on Met was 0.01 to 0.1 µM; on AXL, 0.01 to 0.1 µM; in assay [1], at most 0.01 µM; in assay [2] it was 0.01 to 0.1 µM.

With `CN1CC(NC(=O)c2ccc3nccc(Oc4ccc(NC(=O)C5(C(=O)Nc6ccc(F)cc6)CC5)cc4)c3c2)C1` [Compound 60, 1-N′-(4-fluorophenyl)-1-N-[4-[6-[(1-methylazetidin-3-yl)carbamoyl]quinolin-4-yl]oxyphenyl]cyclopropane-1,1-dicarboxamide], the IC50 on Met fell in the range of 0.1 to 0.3 µM; against AXL, 0.1 to 0.3 µM; in assay [1] it was 0.01 to 0.1 µM; in assay [2] it was 0.01 to 0.1 µM.

`COC(=O)c1cc2c(Oc3ccc(NC(=O)C4(C(=O)Nc5ccc(F)cc5)CC4)cc3F)ccnc2cc1OC` [Compound 129, methyl 4-[2-fluoro-4-[[1-[(4-fluorophenyl)carbamoyl]cyclopropanecarbonyl]amino]phenoxy]-7-methoxyquinoline-6-carboxylate]: the 50% inhibitory concentration (IC50) on Met was 0.01 to 0.1 µM; against AXL, at most 0.01 µM; in assay [1], at most 0.01 µM; in assay [2] it was at most 0.01 µM.
